Measured values from the supplement of paper PMC11451515.

Tested on: P12-Ichikawa
Assay: cell viability relative to DMSO control; higher = less cytotoxic
Settings: 48 h
Summary of the method: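 Viability, reported as a per-plate percentage of DMSO wells with cell-free wells as background, came from CellTiter-Glo One luminescence. Reading took place after 48 h at 37°C. Before that, NOMO1 or SEM (500 cells/well) or P12-Ichikawa (1000 cells/well) leukemia cells, adapted for at least four passages in each medium, were seeded in 1536-well plates (5 μl) and pin-dosed with library compounds in DMSO, 47 μM to 0.79 nM over 11 threefold points.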

[1] = HPLM + 10% dialyzed FBS, 0.000781 µM
[2] = HPLM + 10% dialyzed FBS, 0.00234 µM
[3] = HPLM + 10% dialyzed FBS, 0.00702 µM
[4] = HPLM + 10% dialyzed FBS, 0.0211 µM
[5] = HPLM + 10% dialyzed FBS, 0.0632 µM
[6] = HPLM + 10% dialyzed FBS, 0.19 µM
[7] = HPLM + 10% dialyzed FBS, 0.569 µM
[8] = HPLM + 10% dialyzed FBS, 1.71 µM
[9] = HPLM + 10% dialyzed FBS, 5.12 µM
[10] = HPLM + 10% dialyzed FBS, 15.4 µM
[11] = HPLM + 10% dialyzed FBS, 46.1 µM
[12] = RPMI 5 mM glucose + 10% FBS, 0.000781 µM
[13] = RPMI 5 mM glucose + 10% FBS, 0.00234 µM
[14] = RPMI 5 mM glucose + 10% FBS, 0.00702 µM
[15] = RPMI 5 mM glucose + 10% FBS, 0.0211 µM
[16] = RPMI 5 mM glucose + 10% FBS, 0.0632 µM
[17] = RPMI 5 mM glucose + 10% FBS, 0.19 µM
[18] = RPMI 5 mM glucose + 10% FBS, 0.569 µM
[19] = RPMI 5 mM glucose + 10% FBS, 1.71 µM
[20] = RPMI 5 mM glucose + 10% FBS, 5.12 µM
[21] = RPMI 5 mM glucose + 10% FBS, 15.4 µM
[22] = RPMI 5 mM glucose + 10% FBS, 46.1 µM
[23] = RPMI 5 mM glucose + 10% dialyzed FBS, 0.000781 µM
[24] = RPMI 5 mM glucose + 10% dialyzed FBS, 0.00234 µM
[25] = RPMI 5 mM glucose + 10% dialyzed FBS, 0.00702 µM
[26] = RPMI 5 mM glucose + 10% dialyzed FBS, 0.0211 µM
[27] = RPMI 5 mM glucose + 10% dialyzed FBS, 0.0632 µM
[28] = RPMI 5 mM glucose + 10% dialyzed FBS, 0.19 µM
[29] = RPMI 5 mM glucose + 10% dialyzed FBS, 0.569 µM
[30] = RPMI 5 mM glucose + 10% dialyzed FBS, 1.71 µM
[31] = RPMI 5 mM glucose + 10% dialyzed FBS, 5.12 µM
[32] = RPMI 5 mM glucose + 10% dialyzed FBS, 15.4 µM
[33] = RPMI 5 mM glucose + 10% dialyzed FBS, 46.1 µM

SMILES	cell viability [1] [%]	cell viability [2] [%]	cell viability [3] [%]	cell viability [4] [%]	cell viability [5] [%]	cell viability [6] [%]	cell viability [7] [%]	cell viability [8] [%]	cell viability [9] [%]	cell viability [10] [%]	cell viability [11] [%]	cell viability [12] [%]	cell viability [13] [%]	cell viability [14] [%]	cell viability [15] [%]	cell viability [16] [%]	cell viability [17] [%]	cell viability [18] [%]	cell viability [19] [%]	cell viability [20] [%]	cell viability [21] [%]	cell viability [22] [%]	cell viability [23] [%]	cell viability [24] [%]	cell viability [25] [%]	cell viability [26] [%]	cell viability [27] [%]	cell viability [28] [%]	cell viability [29] [%]	cell viability [30] [%]	cell viability [31] [%]	cell viability [32] [%]	cell viability [33] [%]
CC(=O)N(C)c1cccc(-c2ccnc3c(C(=O)c4cccs4)cnn23)c1	103	115	109	101	108	110	99.8	120	103	99.3	94.5	106	96.8	88.5	80.9	102	101	107	90.5	95.8	88.1	90.2	105	98.7	105	88	93.9	103	107	89.7	95	90.3	92
CC(C)OC(=O)OCOP(=O)(CO[C@H](C)Cn1cnc2c(N)ncnc21)OCOC(=O)OC(C)C.O=C(O)C=CC(=O)O	110	120	73.1	125	127	125	125	128	129	126	106	105	132	70.9	122	124	122	135	129	129	115	4.8	97.6	109	85.9	115	122	124	124	124	128	121	95.2
CN(CC#C)C/C1=C/C2=CC=CC=C2OC3=CC=CC=C13	91	85	92	87.6	90.8	89.6	90.1	80.8	84.1	83	87.1	91.8	86.1	88.2	91.2	92.6	84.7	76.5	83.3	78.4	83.1	82	83.3	81	89.8	87.8	88	87.9	88.4	76.5	77.2	82	78.4
N=C(CCSCc1csc(N=C(N)N)n1)N[S+](N)(=O)[O-]	95.2	102	103	95.7	108	98.2	106	103	106	108	102	93.1	97.4	97.3	94	96.2	93.2	97.6	95.3	95.3	87.3	99.1	80.3	89.1	98.3	91	95.1	94.9	95	88.7	93.5	87.1	83.2
